Laboratory results published in patent US8501804B2, “Bicyclic compound” (Takeda Pharmaceutical Company Limited, priority 2008, dated 2013).

Columns and labels:
human ACC2 (Nd) = biological target: T1, human ACC2 (Nd) (Homo sapiens, UniProt O00763); experiment: ACC2 inhibitory activity (malachite green); format: biochemical; conditions: test compound 10 μM; for inhibition at 10 µM: read-out: ACC2 10 μM inhibitory rate (%)
T1 construct: His6 (from vector pFAST-BacHTa); made in house; host or cells: SF-9 insect cells, recombinant baculovirus BAC-ACC2 (Nd)
Protocol: The ACC2 inhibitory action of the compound of the present invention was evaluated by the following method.
(1) Cloning of Human ACC2 Gene and Preparation of Recombinant Baculovirus
(§1) Human ACC2 gene was cloned by PCR using a human skeletal muscle cDNA library (Clontech) as a template and Primer 1 and Primer 2 shown below. Primer 1 and Primer 2 were prepared by adding SalI, XbaI restriction enzyme recognition sequences based on the information of the base sequence of human ACC2 gene (Genbank Accession U89344).
(§2) PCR was performed using Pyrobest DNA polymerase (TAKARA BIO INC.). The obtained PCR product was cloned to pT7 Blue vector (Novagen) and, after confirmation of the base sequence, digested with restriction enzymes SalI and XbaI. The obtained DNA fragment was inserted into pFAST-BacHTa (Invitrogen) digested with restriction enzymes SalI and XbaI to give expression plasmid ACC2/pFAST-BacHTa.
A plasmid for expression of ACC2 without a mitochondrial targeting sequence was prepared by PCR using the expression plasmid as a template, and Primer 3 (SalI restriction enzyme recognition sequence was added) and Primer 4 prepared by reference to the information of human ACC2 gene base sequence (Genbank Accession U89344).
as §2, with “Pyrobest-DNA” for “Pyrobest DNA”, “AflII.” for “XbaI.”, “ACC2/pFAST-BacHTa” for “pFAST-BacHTa (Invitrogen)”, “AflII” for “XbaI”, “ACC2mito7/pFAST-BacHTa.” for “ACC2/pFAST-BacHTa.”
Using the expression plasmid ACC2mito7/pFAST-BacHTa and BAC-TO-BAC Baculovirus Expression System (Invitrogen), virus stock BAC-ACC2 of recombinant Baculovirus (N terminal deleted (hereinafter Nd)) was prepared.
(2) Preparation of ACC2 (Nd) Protein
SF-9 cells (Invitrogen) were inoculated to a medium (2 L) for insect cells (Sf-900IISFM medium (Invitrogen) containing 10% fetal bovine serum (Trace), 50 mg/L Gentamicin (Invitrogen), 0.1% Pluronic F-68 (Invitrogen)) at 0.5×10^6 cells/mL, and cultured with shaking in Wave Bioreactor (Wave) at 27° C., 20 rpm, rocking angle 6°, oxygen concentration 30%.
On day 4 of the culture, 3 L of the medium for insect cells was added, the rocking angle was set to 8°, and the cells were cultured. On day 5 of the culture, 100 ml of recombinant Baculovirus BAC-ACC2 (Nd) was added, 5 L of the medium for insect cells was further added, the rocking angle was set to 11°, and the cells were cultured for 3 days. The culture medium was centrifuged at 1000×g for 10 min to give virus-infected cells. The cells were washed with phosphate buffered saline (Invitrogen) and centrifuged under the same conditions. The obtained cells were cryopreserved at −80° C.
The cryopreserved cells were thawed in ice and suspended in 900 ml of 25 mM HEPES buffer (pH 7.5) containing 10% Glycerol, 0.13 M NaCl, 1 mM EDTA, 25 mM Sodium β-Glycerophosphate and 1 mM Sodium Orthovanadate, and supplemented with Complete Protease Inhibitor (Nippon Boehringer Ingelheim Co., Ltd.). The obtained suspension was homogenized three times in a polytron homogenizer (Kinematica) at 20,000 rpm for 30 sec. The obtained cell disruption solution was clarified by centrifugation at 31000×g for 60 min, and filtered through a 0.45 μm filter. The filtrate was passed through a column packed with 60 mL of Ni-NTA Super Flow Gel (QUIAGEN) at a flow rate of about 5 mL/min. The column was washed with buffer A (50 mM HEPES (pH 7.5) containing 0.3 M NaCl), further washed with buffer A containing 20 mM Imidazole, and eluted with buffer A containing 100 mM Imidazole. The eluate was concentrated with Vivaspin 20 (Vivascience) with a molecular weight cut off of 30K. The obtained concentrate was dialyzed against 50 mM HEPES (pH 7.5) containing 10 mM MgCl2, 2 mM Dithiothreitol, 10 mM Tripotassium Citrate and 0.3 M NaCl. The inner dialysate was filtered through a 0.22 μm filter to give ACC2 (Nd). […]

human ACC1 = biological target: T2, human ACC1 (Homo sapiens, UniProt Q13085); experiment: ACC1 inhibitory activity (malachite green); format: biochemical; conditions: test compound 10 μM; for inhibition at 10 µM: read-out: ACC1 10 μM inhibitory rate (%)
T2 construct: His6 (from vector pFAST-BacHTc); made in house; host or cells: SF-9 insect cells, recombinant baculovirus BAC-ACC1
Protocol: The ACC1 inhibitory action of the compound of the present invention was evaluated by the following method.
(1) Cloning of Human ACC1 Gene and Preparation of Recombinant Baculovirus
as §1, with “ACC1” for “ACC2”, “liver” for “skeletal muscle”, “NotI” for “XbaI”, “U19822).” for “U89344).”
as §2, with “NotI.” for “XbaI.”, “pFAST-BacHTc” for “pFAST-BacHTa”, “NotI” for “XbaI”, “ACC1/pFAST-BacHTc.” for “ACC2/pFAST-BacHTa.”
Using the expression plasmid ACC1/pFAST-BacHTc and BAC-TO-BAC Baculovirus Expression System (Invitrogen), virus stock BAC-ACC1 of recombinant Baculovirus was prepared.
(2) Preparation of ACC1 Protein
SF-9 cells (Invitrogen) were inoculated to a medium (1 L) for insect cells (Sf-900IISFM medium (Invitrogen) containing 10% fetal bovine serum (Trace), 50 mg/L Gentamicin (Invitrogen), 0.1% Pluronic F-68 (Invitrogen)) at 1×10^6 cells/mL, and cultured with shaking in 2 L meyer at 27° C., 100 rpm.
After 24 hr of the culture, 10 mL of recombinant Baculovirus BAC-ACC1 was added, and the cells were cultured for 3 days. The culture medium was centrifuged at 1000×g for 5 min to give virus-infected cells. The cells were washed with phosphate buffered saline (Invitrogen) and centrifuged under the same conditions. The obtained cells were cryopreserved at −80° C.
The cryopreserved cells were thawed in ice and suspended in 100 mL of 25 mM HEPES buffer (pH 7.5) containing 10% Glycerol, 0.13 M NaCl, 1 mM EDTA, 25 mM Sodium […] and 1 mM Sodium Orthovanadate, and supplemented with Complete Protease Inhibitor (Nippon Boehringer Ingelheim Co., Ltd.). The obtained suspension was homogenized three times in a polytron homogenizer (Kinematica) at 20,000 rpm for 30 sec. The obtained cell disruption solution was clarified by centrifugation at 185700×g for 50 min, and filtered through a 0.45 μm filter. The filtrate was passed through a column packed with 12 ml of Ni-NTA Super Flow Gel (QUIAGEN) at a flow rate of about 5 mL/min. The column was washed with buffer A (50 mM HEPES (pH 7.5) containing 0.3 M NaCl), further washed with buffer A containing 20 mM Imidazole, and eluted with buffer A containing 100 mM Imidazole. The eluate was concentrated with Vivaspin 20 (Vivascience) with a molecular weight cut off of 30K. The obtained concentrate was dialyzed against Sephadex G-25 (Amersham Biosciences, 358 mL) equilibrated with 50 mM HEPES (pH 7.5) containing 10 mM MgCl2, 2 mM Dithiothreitol, 10 mM Tripotassium Citrate and 0.3 M NaCl. The inner dialysate was concentrated with Vivaspin 20 (Vivascience) with molecular weight cut off of 30K, and concentrate was filtered through a 0.22 μm filter to give ACC1. The obtained ACC1 was cryopreserved at −80° C.
(3) Measurement of ACC1 Inhibitory Activity
ACC1 (0.93 mg/ml) obtained in the above-mentioned (2) was diluted with an enzyme reaction buffer (50 mM HEPES (pH 7.5), 10 mM MgCl2, 10 mM Tripotassium Citrate, 2 mM Dithiothreitol, 0.75 mg/ml Fatty acid free BSA) to a concentration of 8 μg/ml, and the mixture was added to each well of a 384 well assay plate (Nunc 265196) by 10 μl. A test compound was dissolved in dimethyl sulfoxide (DMSO) and the mixture was diluted with an enzyme reaction buffer and the resulting solution (5 μl) was added to each well. The mixture was incubated at 30° C. for 60 min. Then, a substrate solution (50 mM KHCO3, 200 μM ATP, 200 μM Acetyl-CoA, 5 μl) was added to each well, and the mixture was reacted at 30° C. for 20 min (test compound addition group). […]

T1 sequence (O00763 117-2458 limits assumed): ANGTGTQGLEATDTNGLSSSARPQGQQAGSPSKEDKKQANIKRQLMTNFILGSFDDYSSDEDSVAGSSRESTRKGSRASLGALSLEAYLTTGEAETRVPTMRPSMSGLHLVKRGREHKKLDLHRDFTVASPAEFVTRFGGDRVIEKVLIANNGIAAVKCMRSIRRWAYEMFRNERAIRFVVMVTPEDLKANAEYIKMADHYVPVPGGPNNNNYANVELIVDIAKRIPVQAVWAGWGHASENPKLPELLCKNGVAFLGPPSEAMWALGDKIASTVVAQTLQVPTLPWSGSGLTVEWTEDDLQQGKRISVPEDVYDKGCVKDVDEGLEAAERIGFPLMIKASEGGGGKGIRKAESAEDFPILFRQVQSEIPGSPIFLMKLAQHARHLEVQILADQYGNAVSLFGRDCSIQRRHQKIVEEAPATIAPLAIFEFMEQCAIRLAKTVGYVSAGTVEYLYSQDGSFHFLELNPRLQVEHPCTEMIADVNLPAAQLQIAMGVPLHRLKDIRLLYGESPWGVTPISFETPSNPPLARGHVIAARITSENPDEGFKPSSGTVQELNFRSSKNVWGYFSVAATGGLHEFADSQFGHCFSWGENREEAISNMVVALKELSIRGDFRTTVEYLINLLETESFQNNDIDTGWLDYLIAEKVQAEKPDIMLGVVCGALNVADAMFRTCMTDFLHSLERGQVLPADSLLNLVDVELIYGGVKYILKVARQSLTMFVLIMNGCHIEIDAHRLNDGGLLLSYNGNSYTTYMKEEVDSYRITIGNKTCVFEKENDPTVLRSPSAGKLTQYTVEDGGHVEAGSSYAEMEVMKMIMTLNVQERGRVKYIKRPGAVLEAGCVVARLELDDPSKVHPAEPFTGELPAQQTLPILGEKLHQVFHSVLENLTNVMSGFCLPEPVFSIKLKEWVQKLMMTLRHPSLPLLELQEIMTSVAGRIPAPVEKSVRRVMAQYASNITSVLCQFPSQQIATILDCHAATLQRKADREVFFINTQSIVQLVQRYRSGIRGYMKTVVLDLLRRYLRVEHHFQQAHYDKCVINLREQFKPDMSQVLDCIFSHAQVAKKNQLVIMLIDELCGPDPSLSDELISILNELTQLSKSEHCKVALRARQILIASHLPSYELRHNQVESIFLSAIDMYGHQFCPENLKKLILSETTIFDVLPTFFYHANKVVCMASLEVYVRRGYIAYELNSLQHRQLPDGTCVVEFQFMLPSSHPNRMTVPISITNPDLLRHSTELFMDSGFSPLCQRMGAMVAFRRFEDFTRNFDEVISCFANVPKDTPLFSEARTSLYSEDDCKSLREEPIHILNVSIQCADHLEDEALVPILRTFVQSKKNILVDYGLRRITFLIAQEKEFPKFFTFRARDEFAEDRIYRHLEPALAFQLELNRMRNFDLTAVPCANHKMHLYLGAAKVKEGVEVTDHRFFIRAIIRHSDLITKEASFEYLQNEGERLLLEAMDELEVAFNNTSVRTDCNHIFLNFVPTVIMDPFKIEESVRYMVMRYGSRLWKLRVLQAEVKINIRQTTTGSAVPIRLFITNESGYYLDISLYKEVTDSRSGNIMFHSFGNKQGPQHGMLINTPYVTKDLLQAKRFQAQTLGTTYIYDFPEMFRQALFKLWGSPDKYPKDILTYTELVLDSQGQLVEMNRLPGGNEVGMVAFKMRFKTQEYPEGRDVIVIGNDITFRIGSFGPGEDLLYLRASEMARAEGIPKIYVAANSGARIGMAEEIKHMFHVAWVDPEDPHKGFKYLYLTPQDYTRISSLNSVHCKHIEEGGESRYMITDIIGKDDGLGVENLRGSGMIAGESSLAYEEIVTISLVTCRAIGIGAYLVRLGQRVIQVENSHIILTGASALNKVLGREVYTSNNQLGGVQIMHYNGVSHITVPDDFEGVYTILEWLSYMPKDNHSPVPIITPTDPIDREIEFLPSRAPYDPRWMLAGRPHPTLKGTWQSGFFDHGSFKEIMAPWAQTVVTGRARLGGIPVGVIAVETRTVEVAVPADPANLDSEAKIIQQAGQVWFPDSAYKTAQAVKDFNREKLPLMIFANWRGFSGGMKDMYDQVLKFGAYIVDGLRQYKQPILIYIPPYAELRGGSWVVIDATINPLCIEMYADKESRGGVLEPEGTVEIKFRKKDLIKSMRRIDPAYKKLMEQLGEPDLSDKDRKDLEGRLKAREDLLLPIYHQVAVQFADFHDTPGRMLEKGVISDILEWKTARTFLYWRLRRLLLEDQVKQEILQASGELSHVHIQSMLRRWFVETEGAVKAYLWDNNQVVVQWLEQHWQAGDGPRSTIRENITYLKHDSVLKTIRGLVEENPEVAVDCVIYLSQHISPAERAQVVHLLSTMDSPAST

Structure (SMILES) | ACC2 10 μM inhibitory rate (%) (human ACC2 (Nd)) | ACC1 10 μM inhibitory rate (%) (human ACC1) | inhibition at 10 µM (human ACC2 (Nd)) [%] | inhibition at 10 µM (human ACC1) [%]
CC(=O)N[C@@H](C)[C@@H]1Cc2ccc(C#Cc3ccc(OCC4CC4)cc3)cc2O1.CC(=O)N[C@H](C)[C@H]1Cc2ccc(C#Cc3ccc(OCC4CC4)cc3)cc2O1 (mixture of isomers) [Example 129 (retention time longer), N-{(1R)-1-[(2R)-6-{[4-(cyclopropylmethoxy)phenyl]ethynyl}-2,3-dihydro-1-benzofuran-2-yl]ethyl}acetamide and N-{(1S)-1-[(2S)-6-{[4-(cyclopropylmethoxy)phenyl]ethynyl}-2,3-dihydro-1-benzofuran-2-yl]ethyl}acetamide] | 86 | 51 |  | 
CC(=O)N[C@@H](C)[C@@H]1Cc2ccc(CCc3ccc(OCC4CC4)cc3)cc2O1.CC(=O)N[C@H](C)[C@H]1Cc2ccc(CCc3ccc(OCC4CC4)cc3)cc2O1 (mixture of isomers) [Example 130 (retention time longer), N-{(1R)-1-[(2R)-6-{2-[4-(cyclopropylmethoxy)phenyl]ethyl}-2,3-dihydro-1-benzofuran-2-yl]ethyl}acetamide and N-{(1S)-1-[(2S)-6-{2-[4-(cyclopropylmethoxy)phenyl]ethyl}-2,3-dihydro-1-benzofuran-2-yl]ethyl}acetamide] | 62 | 25 |  | 
CC(=O)N[C@H](C)[C@H]1Cc2ccc(C#Cc3ccc(OCC4CC4)cc3)cc2O1 (racemic) [Example 111, 1:1 mixture of N-{(1R)-1-[(2R)-6-{[4-(cyclopropylmethoxy)phenyl]ethynyl}-2,3-dihydro-1-benzofuran-2-yl]ethyl}acetamide and N-{(1S)-1-[(2S)-6-[([4-(cyclopropylmethoxy)phenyl]ethynyl]-2,3-dihydro-1-benzofuran-2-yl]ethyl}acetamide] |  |  | 78 | 30
CC(=O)N[C@H](C)[C@H]1Cc2ccc(CCc3ccc(OCC4CC4)cc3)cc2O1 (racemic) [Example 121, 1:1 mixture of N-{(1R)-1-[(2R)-6-{2-[4-(cyclopropylmethoxy)phenyl]ethyl}-2,3-dihydro-1-benzofuran-2-yl]ethyl}acetamide and N-{(1S)-1-[(2S)-6-{2-[4-(cyclopropylmethoxy)phenyl]ethyl}-2,3-dihydro-1-benzofuran-2-yl]ethyl}acetamide] |  |  | 73 | 35
CCOc1ccc(COc2ccc3oc(C(C)NC(C)=O)cc3c2)cc1 (stereo not shown) [Example 18, N-(1-{5-[(4-ethoxybenzyl)oxy]-1-benzofuran-2-yl}ethyl)acetamide] |  |  | 85 | 15
CCOc1ccc(COc2ccc3cc(C(C)NC(C)=O)sc3c2)cc1 (stereo not shown) [Example 19, N-(1-{6-[(4-ethoxybenzyl)oxy]-1-benzothiophen-2-yl}ethyl)acetamide] |  |  | 78 | 24
CCOc1ccc(CCc2ccc3cc(C(C)NC(C)=O)oc3c2)cc1 (stereo not shown) [Example 20, N-(1-{6-[2-(4-ethoxyphenyl)ethyl]-1-benzofuran-2-yl}ethyl)acetamide] | 83 | 23 |  | 
CCOc1ccc(COc2ccc3oc(C(C)NC(C)=O)cc3c2)cc1 (stereo not shown) [Example 27, optically active forms (two kinds) of N-(1-{5-[(4-ethoxybenzyl)oxy]-1-benzofuran-2-yl}ethyl)acetamide] | 76 | 18 |  | 
CCOc1ccc(COc2ccc3oc(C(C)NC(C)=O)cc3c2)c(Cl)c1 (stereo not shown) [Example 28, N-(1-{5-[(2-chloro-4-ethoxybenzyl)oxy]-1-benzofuran-2-yl}ethyl)acetamide] |  |  | 81 | 19
CCCOc1ccc(CCc2ccc3cc(C(C)NC(C)=O)oc3c2)cc1 (stereo not shown) [Example 32, N-(1-{6-[2-(4-propoxyphenyl)ethyl]-1-benzofuran-2-yl}ethyl)acetamide] |  |  | 84 | 36
CCOc1ccc(OCc2ccc3sc(C(C)NC(C)=O)nc3c2)cc1 (stereo not shown) [Example 37, N-(1-{5-[(4-ethoxyphenoxy)methyl]-1,3-benzothiazol-2-30 yl}ethyl)acetamide] |  |  | 77 | -4
